Measurements from patent publication US20040038369A1, “Airway-specific trypsin-like enzymes and method of using the same” (priority 2000, published 2004).

Tests used:
[1] = system: EGF on surface of H292 cell membrane; experiment: Surface antigen analysis (FACS) of EGF on NCI-H292 cell membrane; format: cell-based, human; conditions: HAST 300 mU/mL + inhibitor (leupeptin 10 μM, BB1101 5 μM); PBS 10.79, HAST alone 8.33
Experimental: (§1) NCI-H292 cells (purchased from ATCC) were cultured on a 10 cm dish in 10% FCS-containing RPMI-1640 until to reach a confluent state, subjected to the replacement of the culture medium by RPMI-1640 containing 0.1% of BSA, and further cultured for 24 hours. The cultured cells were washed with PBS, treated and floated in PBS containing 5 mM of EDTA at 37° C. for five minutes, and then suspended in 0.1%BSA-containing RPMI-1640 in a density of 1.0×10^7 cells/mL.
(§2) The above-described cell suspension and 0.1% BSA-containing RPMI-1640 containing HAST in a double concentration (600 mU/mL) were mixed with each other in equivalent amounts, respectively, and reacted with each other at 37° C. for 30 minutes (final cell concentration: 5.0×10^6 cells/mL, final HAST concentration: 300 mU/mL). The reaction solution was mixed with ice-cooled 1% FCS-containing PBS in a volume of 5 times that of the reaction solution to stop the reaction, and the treated solution was then supplied for a surface antigen analysis.
(§3) The cells subjected to the prescribed treatments were suspended in 1% FCS-containing PBS in a density of 1.0×10^7 cells/mL. 100 μL of the prepared cell suspension was mixed with a primary antigen (EGF back ground dyeing: 1 μg of normal mouse IgG1 (produced by R & D Corp.), EGF dyeing: 1 μg of an anti-EGF mouse monoclonal antibody (produced by R & D Corp.), HB-EGF back ground dyeing: free from the primary antigen, HB-EGF dyeing: 2 μg of an anti-HB-EGF goat polyclonal antibody (produced by R & D Corp.)) and reacted on ice for 30 minutes. The reaction product was once washed with 5 mL of 1% FCS-containing PBS, mixed with 2 μg of a secondary antigen (EGF back ground dyeing and EGF dyeing: FITC conjugated F(ab′)2 fragment to mouse IgG (produced by Dako Corp.), HB-EGF back ground dyeing and HB-EGF dyeing: Swine Anti-Goat Ig's Fluorescein Conjugate (produced by KPL Corp.)), and then reacted on ice for 30 minutes. The reaction solution was once washed with 5 mL of 1% FCS-containing PBS, and then mixed with Cell Fix (produced by Becton Dickinson Corp.) to immobilize the cells. The expression of the surface antigen was assayed with FACS Calibur (produced by Becton Dickinson Corp.) and analyzed with Cell Quest (produced by Becton Dickinson Corp.). Average fluorescence intensities were shown in the next table as the indicators of expression intensities.
(§4) HAST (600 mU/mL) was reacted with leupeptin (10 μM) or BB1101 (5 μM) in 0.1% BSA-containing RPMI-1640 on ice for 30 minutes, and the reaction solution was mixed with the equivalent amount of a cell suspension preliminarily treated with leupeptin (10 μM) or BB1101 (5 μM) at 37° C. for 30 minutes, and further treated at 37° C. for 30 minutes (final HAST concentration: 300 mU/mL, final leupeptin concentration: 10 μM, final BB1101 concentration: 5 μM, final cell concentration: 5.0×10^6 cells/mL). The reaction solution was mixed with ice-cooled 1% FCS-containing PBS in an amount of five times that of the reaction solution to stop the reaction, and then supplied for the surface antigen analysis.
(§5) The cells subjected to the prescribed treatments were suspended in 1% FCS-containing PBS in a density of 1.0×10^7 cells/mL. […]

[2] = system: HB-EGF on surface of H292 cell membrane; experiment: Surface antigen analysis (FACS) of HB-EGF on NCI-H292 cell membrane; format: cell-based, human; conditions: HAST 300 mU/mL + inhibitor (leupeptin 10 μM, BB1101 5 μM); PBS 8.61, HAST alone 6.26
Experimental: as §1, §2, §3, §4, §5

NCI-H292 cells = experiment: AB-PAS staining of mucus glycoprotein in NCI-H292 cells; format: cell-based, human; conditions: FIG. 1 and 2
Experimental: (§6) NCI-H292 cells (human pulmonary mucoepidermoid tumor cell strain, purchased from ATCC) were suspended in 10% FCS (Fetal Calf Serum)-containing RPMI-1640 (produced by Gibco Corp.), sowed on a Lab-Tek 8 well chamber slide (produced by Nunc Corp.) in a density of 6.0×10^4 cells/cm^2, cultured for 72 hours, subjected to the replacement of the culture solution by RPMI-1640 containing 0.1% of BSA, and further cultured for 24 hours.
On the day of the treatment, the culture solution of each well was replaced by RPMI-1640 (containing 0.1% BSA) containing EGF (5 ng/mL, produced by Becton Dickinson Corp.), HB-EGF (5 ng/mL, produced by R & D Corp.), TGF-α (5 ng/mL, produced by Peprotech Corp.), or PBS to start the treatment. Then, the cells were incubated at 37° C. for 24 hours.
After the prescribed 24 hours treatment, the culture supernatant was removed. The residue was once washed with PBS, mixed with 4% paraformaldehyde/PBS, and then allowed to stand at room temperature for one hour to immobilize the cells. The immobilized cells were twice washed with Milli Q water and then stained with AB-PAS. The staining was carried out according to a book (“All of new dyeing methods” p136-150 (Iyaku Shuppansha)). After staining, the cells were sequentially immersed in 70, 80, and 100% ethanol for five minutes, respectively, to remove water, sealed in an Aquatex (produced by Merck Corp.), and then subjected to the observation of the staining image with an optical microscope. From the results, it was clarified that all of HAST, TGF-α, EGF, and HB-EGF promoted the production of the mucus glycoprotein.
as §6, with “(purchased” for “(human pulmonary mucoepidermoid tumor cell strain, purchased”, “FCS-containing” for “FCS (Fetal Calf Serum)-containing”, “hours. […]” for “hours.”

PAR-1 = target: T1, PAR-1 (Homo sapiens, UniProt P25116); experiment: Calcium influx in PAR-1-expressing insect cells; format: cell-based; conditions: AST 2 units/mL; trypsin, thrombin 0.1 to 10 units/mL; SFLLRNamide 10 to 100 μM
T1 construct: expressed in transfected cells; host or cells: Sf9 insect cells infected with recombinant baculovirus VL-PAR (pVL1393)
T1 sequence (P25116 22-425): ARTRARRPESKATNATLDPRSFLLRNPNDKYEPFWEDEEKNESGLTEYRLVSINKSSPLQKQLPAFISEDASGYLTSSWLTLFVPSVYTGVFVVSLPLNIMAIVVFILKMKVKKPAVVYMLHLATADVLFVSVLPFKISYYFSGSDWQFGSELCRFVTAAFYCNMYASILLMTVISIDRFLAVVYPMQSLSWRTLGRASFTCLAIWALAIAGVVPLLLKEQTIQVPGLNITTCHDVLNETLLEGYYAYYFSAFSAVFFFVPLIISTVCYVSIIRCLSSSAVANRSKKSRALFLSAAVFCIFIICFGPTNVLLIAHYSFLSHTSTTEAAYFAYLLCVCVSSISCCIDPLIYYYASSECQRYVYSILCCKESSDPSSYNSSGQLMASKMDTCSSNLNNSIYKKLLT

PAR-4 = target: T2, PAR-4 (Homo sapiens, UniProt Q96RI0); experiment: Calcium influx in PAR-4-expressing insect cells; format: cell-based; conditions: AST 2 units/ml; trypsin, thrombin 0.1 to 10 units/mL
T2 construct: expressed in transfected cells; host or cells: Sf9 insect cells infected with recombinant baculovirus VL-PAR (pVL1393)
T2 sequence (Q96RI0 18-385): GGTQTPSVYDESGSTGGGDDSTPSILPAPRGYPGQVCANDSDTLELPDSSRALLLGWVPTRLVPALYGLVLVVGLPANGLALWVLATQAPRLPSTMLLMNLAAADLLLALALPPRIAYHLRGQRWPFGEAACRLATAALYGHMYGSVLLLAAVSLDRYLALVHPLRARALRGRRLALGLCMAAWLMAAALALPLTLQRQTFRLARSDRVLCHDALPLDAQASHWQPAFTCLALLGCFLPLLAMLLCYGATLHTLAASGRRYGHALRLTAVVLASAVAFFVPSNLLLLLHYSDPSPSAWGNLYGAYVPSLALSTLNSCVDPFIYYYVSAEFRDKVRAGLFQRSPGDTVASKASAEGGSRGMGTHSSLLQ
Experimental: (§7) The above-obtained recombinant baculovirus VL-PAR for expressing the PAR was used to infect 1.0×10^7 Sf9 cells sowed on a 75 cm^2 flask at an MOI=2, and was then left and stationally cultured at 27° C. for 40 hours. After the culture, the infected cells were recovered and then subjected to a calcium influx experiment to-confirm the function of the PAR.
The recovered infected cells (about 5×10^6 cells) were once washed with HEPES-Tyrode buffer solution-Ca^2+ (−) pH 7.4, and then suspended in 5 mL of HEPES-Tyrode buffer solution (containing Fura2-AM, 1 μg/mL) to load the Fura2-AM on the cells at 27° C. for 30 minutes. The suspension was centrifuged at 800 rpm at room temperature for 5 minutes to recover the cells. The cells were twice washed with HEPES-Tyrode buffer solution-Ca^2+ (−) pH 7.4 and then resuspended in 5 mL of HEPES-Tyrode buffer solution-Ca^2+ (−) pH 7.4. The cell suspension was mixed with 5 μL of 1M CaCl2 to give a final concentration of 1 mM CaCl2, and then incubated in a shaded state at room temperature for 5 minutes. The prepared Fura2-AM-loaded infected cells were dispensed into a 96 well plate in a volume of 100 μL/well, further subjected to the dispensation of HEPES-Tyrode buffer solution-C^2+ (+) pH 7.4 in a volume of 80 μL/well, and then assayed with a Fluorescence Drug Screening System (made by Hamamatsu Photonics Co.). […]

PAR-2 = target: T3, PAR-2 (Homo sapiens, UniProt P55085); experiment: Calcium influx in PAR-2-expressing insect cells; format: cell-based; conditions: AST 2 units/mL; trypsin, thrombin 0.1 to 10 units/mL; SFLLRNamide, SLIGRL 10 to 100 μM
T3 construct: expressed in transfected cells; host or cells: Sf9 insect cells infected with recombinant baculovirus VL-PAR (pVL1393)
T3 sequence (P55085 26-397): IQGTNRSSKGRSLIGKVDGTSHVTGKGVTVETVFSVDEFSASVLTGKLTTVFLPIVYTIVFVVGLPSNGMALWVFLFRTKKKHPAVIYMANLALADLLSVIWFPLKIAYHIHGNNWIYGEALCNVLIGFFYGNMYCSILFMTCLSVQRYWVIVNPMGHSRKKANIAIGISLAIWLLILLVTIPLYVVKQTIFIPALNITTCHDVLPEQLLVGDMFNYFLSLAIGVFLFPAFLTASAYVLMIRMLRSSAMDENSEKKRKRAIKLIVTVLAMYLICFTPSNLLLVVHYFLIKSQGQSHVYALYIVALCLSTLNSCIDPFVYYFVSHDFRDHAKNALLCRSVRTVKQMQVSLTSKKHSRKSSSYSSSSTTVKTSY
Experimental: as §7
The recovered infected cells (about 5×10^6 cells) were once washed with HEPES-Tyrode buffer solution-Ca^2+ (−) pH 7.4, and then suspended in 5 mL of HEPES-Tyrode buffer solution (containing Fura2-AM, 1 μg/mL) to load the Fura2-AM on the cells at 27° C. for 30 minutes. The suspension was centrifuged at 800 rpm at room temperature for 5 minutes to recover the cells. The cells were twice washed with HEPES-Tyrode buffer solution-Ca^2+ (−) pH 7.4 and then resuspended in 5 mL of HEPES-Tyrode buffer solution-Ca^2+ (−) pH 7.4. The cell suspension was mixed with 5 μL of 1M CaCl2 to give a final concentration of 1 mM CaCl2, and then incubated in a shaded state at room temperature for 5 minutes. The prepared Fura2-AM-loaded infected cells were dispensed into a 96 well plate in a volume of 100 μL/well, further subjected to the dispensation of HEPES-Tyrode buffer solution-C^2+ (+) pH 7.4 in a volume of 80 μL/well, and then assayed with a Fluorescence Drug Screening System (made by Hamamatsu Photonics Co.). Namely, [intensity of 500 nm fluorescent light due to 340 nm exciting light]/[intensity of 500 nm fluorescent light due to 380 nm exciting light] (reflecting the concentration of calcium in the cells) was assayed.

`CC(=O)N[C@@H](CC(C)C)C(=O)N[C@@H](CC(C)C)C(=O)N[C@H](C=O)CCCNC(=N)N` [leupeptin, reference compound] was tested, and the “EGF expression intensity on the surfaces of the cell membranes (average fluorescence intensity)” value [1] was 10.18 and the “HB-EGF expression intensity on the surfaces of the cell membranes (average fluorescence intensity)” value [2] was 7.3.

For `C=CC[C@H](C(=O)NO)[C@@H](CC(C)C)C(=O)N[C@@H](Cc1ccccc1)C(=O)NC` [BB01, reference compound], the “EGF expression intensity on the surfaces of the cell membranes (average fluorescence intensity)” value [1] was 7.49 and the “HB-EGF expression intensity on the surfaces of the cell membranes (average fluorescence intensity)” value [2] was 6.65.

For “TGF-α: Transforming Growth Factor-α, EGFR ligand, produced by Peprotech Corp. [reference compound]”, the “production of the mucus glycoprotein” value (NCI-H292 cells) was “promoted”.

In the case of thrombin [reference compound], the “Ca2+ influx” value (PAR-1) is reported as “observed”, the “Ca2+ influx” value (PAR-4) is reported as “observed” and the “Ca2+ influx” value (PAR-2) is reported as “observed”.

For SLIGRL [agonist peptide for PAR-2], the “Ca2+ influx” value (PAR-2) was “observed”.

In the case of “HB-EGF: Heparin-binding EGF-like Growth Factor, EGFR ligand, produced by R & D Corp. [reference compound]”, the “production of the mucus glycoprotein” value (NCI-H292 cells) is reported as “promoted”.
